The results in this text go back to article PMC11413964, “Discovery of 1,3-disubstituted prop-2-en-1-one derivatives as inhibitors of neutrophilic inflammation via modulation of MAPK and Akt pathways” (Journal of Enzyme Inhibition and Medicinal Chemistry, 2024).

For data set [1], the system named is fMLF/cytochalasin B (CB)-activated human neutrophils. Nature of the data set: Superoxide anion generation (ferricytochrome c reduction) in fMLF/CB-activated human neutrophils. Type of data set: cell-based. As to conditions: Neutrophil, fMLF/CB stimulation, mean ± SEM (n = 3–5); for inhibition at 10 µM: 10 μM compound. The method, then:
(§1) The study involving neutrophils was approved by the Institutional Review Board of Chang Gung Memorial Hospital under IRB number: 201902217A3 and was conducted in accordance with the principles of the Declaration of Helsinki. Healthy volunteers aged 20–35 years provided signed informed consents for blood collection. Isolation of neutrophils was done using dextran sedimentation, Ficoll-Hypaque density gradient centrifugation, and hypotonic haemolysis. For the anti-inflammatory studies, neutrophils were suspended in Hank’s balanced salt solution (HBSS) containing 1 mM Ca^2+ at a pH of 7.4[72].
The reduction of ferricytochrome c was utilised to measure the production of SO anions in activated human neutrophils. […] The neutrophils were then stimulated with fMLF (0.1 μM) and CB (1 μg/mL) for 13 min. […] LY294002 was used as a positive control.

Data set [2] shares this test system. Description: Elastase release in fMLF/CB-activated human neutrophils. As to conditions: Homo sapiens, Neutrophil, fMLF/CB stimulation, mean ± SEM (n = 3–5); for inhibition at 10 µM: 10 μM compound. In kind it is cell-based. The method, then: as §1
Neutrophils were subsequently stimulated with fMLF (0.1 μM) and CB (0.5 μg/mL) for 13 min. […] LY294002 was used as a positive control.

As usually defined, the inhibition is the change of the read-out against control, counted positive when it falls. A word on the melting point: it is the temperature, or range, at which the solid turns liquid. For `CC(C)(C)C(=O)/C=C/c1ccc(Cl)cc1` [Compound 1, (E)-1-(4-Chlorophenyl)-4,4-dimethylpent-1-en-3-one], the melting point fell in the range of 85 to 85.5 °C. In addition, the inhibition at 10 µM in data set [1] turned out to be 23.4 ± 7.96%. Besides, in data set [2], the inhibition at 10 µM is 8.43 ± 4.28%.

`O=C(/C=C/c1ccc([N+](=O)[O-])cc1)C1CC1` [Compound 1a, (E)-1-Cyclopropyl-3-(4-nitrophenyl)prop-2-en-1-one] registered a melting point of 118.9 to 120 °C. The inhibition at 10 µM in data set [1] came out at 20.5 ± 4.05%. For the same molecule, the inhibition at 10 µM in data set [2] was determined as 2.36 ± 3.3%.

The IC50 is the concentration at which inhibition is half-maximal. The low end stands for higher potency, the high end for lower potency. In the case of `O=C(/C=C/c1ccc(Cl)cc1)c1ccccc1` [Compound 2, (E)-3-(4-Chlorophenyl)-1-phenylprop-2-en-1-one], in data set [1], the inhibition at 10 µM is 94.7 ± 3.22% and the IC50 came out at 3.01 ± 0.68 µM. Also, in data set [2], the inhibition at 10 µM came out at 62 ± 6.31% and it took 7.78 ± 0.96 µM to reach half-maximal inhibition (IC50).

Molecule `CC1(C(=O)/C=C/c2ccc([N+](=O)[O-])cc2)CC1` [Compound 2a, (E)-1-(1-Methylcyclopropyl)-3-(4-nitrophenyl)prop-2-en-1-one] gave a melting point of 133.1 °C. Also, the inhibition at 10 µM in data set [1] is 8.75 ± 5.03%. For the same molecule, the inhibition at 10 µM in data set [2] came to 8.39 ± 2.25%.

In turn, `CC(C)(C)C(=O)/C=C/c1ccc(Br)cc1` [Compound 3, (E)-1-(4-Bromophenyl)-4,4-dimethylpent-1-en-3-one] registered a melting point of 101 °C. For the same molecule, in data set [1], the inhibition at 10 µM was found to be 25 ± 2.48%. Further, the inhibition at 10 µM in data set [2] was 9.09 ± 2.01%.

`O=C(/C=C/c1ccc([N+](=O)[O-])cc1)C1CCCCC1` [Compound 3a, (E)-1-Cyclohexyl-3-(4-nitrophenyl)prop-2-en-1-one] came in with a melting point of 132 to 134 °C. The inhibition at 10 µM in data set [1] stood at 11.4 ± 1.6%. Moreover, the inhibition at 10 µM in data set [2] came to 11.9 ± 4.68%.

With `CC(C)(C)C(=O)/C=C/c1ccc(C(F)(F)F)cc1` [Compound 4, (E)-4,4-Dimethyl-1-(4-(trifluoromethyl)phenyl)pent-1-en-3-one], the melting point lay in the range of 70 to 71 °C. The inhibition at 10 µM in data set [1] was determined as 11.7 ± 5.39%. Besides, in data set [2], the inhibition at 10 µM came out at 1.18 ± 0.98%.

As for `Cc1ccccc1C(=O)/C=C/c1ccc([N+](=O)[O-])cc1` [Compound 4a, (E)-3-(4-Nitrophenyl)-1-(o-tolyl)prop-2-en-1-one], the melting point lay within 128 to 129 °C. Moreover, in data set [1], the inhibition at 10 µM was determined as 100 ± 2.65% and inhibition was half-maximal at 4.55 ± 0.1 µM (IC50). For the same molecule, in data set [2], the inhibition at 10 µM was 63.8 ± 5.98% and the IC50 came out at 7.22 ± 1.16 µM.

`CCOc1ccccc1C(=O)/C=C/c1ccccc1C(F)(F)F` [Compound 5, (E)-1-(2-Ethoxyphenyl)-3-(2-(trifluoromethyl)phenyl)prop-2-en-1-one] returned a melting point of 70.5 to 71.5 °C. For the same molecule, in data set [1], the inhibition at 10 µM was determined as 68.3 ± 8.99% and it took 1.81 ± 0.22 µM to reach half-maximal inhibition (IC50). The inhibition at 10 µM in data set [2] is 8.13 ± 3.43%.

`COc1ccccc1C(=O)/C=C/c1ccc([N+](=O)[O-])cc1` [Compound 5a, (E)-1-(2-Methoxyphenyl)-3-(4-nitrophenyl)prop-2-en-1-one] came in with a melting point of 116.5 to 118 °C. In data set [1], the inhibition at 10 µM came out at 102 ± 1.92% and it took 3.77 ± 0.33 µM to reach half-maximal inhibition (IC50). Further, in data set [2], the inhibition at 10 µM is 75.6 ± 5.02% and 6.25 ± 0.52 µM corresponded to half-maximal inhibition (IC50).

`O=C(/C=C/c1ccc([N+](=O)[O-])cc1)c1ccccn1` [Compound 7, (E)-3-(4-Nitrophenyl)-1-(pyridin-2-yl)prop-2-en-1-one]: the melting point lay within 153 to 155 °C. In data set [1], the inhibition at 10 µM was found to be 94.5 ± 2.89% and the IC50 worked out at 4.35 ± 0.3 µM. Moreover, in data set [2], the inhibition at 10 µM was 78.1 ± 0.36% and the IC50 is 6.17 ± 0.1 µM.

For `COc1ccc(C(=O)/C=C/c2ccc([N+](=O)[O-])cc2)cc1` [Compound 7a, (E)-1-(4-Methoxyphenyl)-3-(4-nitrophenyl)prop-2-en-1-one], in data set [1], the inhibition at 10 µM was 59.7 ± 1.41% and the midpoint of inhibition, the IC50, lay at 6.9 ± 0.67 µM. In addition, in data set [2], the inhibition at 10 µM was found to be 63.8 ± 6.59% and the IC50 is 6.33 ± 1.15 µM.

The molecule `CC(C)(C)C(=O)/C=C/c1cccc([N+](=O)[O-])c1` [Compound 8, (E)-4,4-Dimethyl-1-(3-nitrophenyl)pent-1-en-3-one] gave a melting point of 92 to 93 °C. The inhibition at 10 µM in data set [1] stood at 10.3 ± 2.86%. In addition, the inhibition at 10 µM in data set [2] was 4.89 ± 0.91%.

`COc1ccc(C(=O)/C=C/c2ccc([N+](=O)[O-])cc2)cc1OC` [Compound 8a, (E)-1-(3,4-Dimethoxyphenyl)-3-(4-nitrophenyl)prop-2-en-1-one]: the melting point is 189 to 191 °C. Besides, in data set [1], the inhibition at 10 µM worked out at 81 ± 2.57% and the concentration for half-maximal inhibition (IC50) was determined as 2.72 ± 0.35 µM. Also, in data set [2], the inhibition at 10 µM turned out to be 56.9 ± 3.22% and the midpoint of inhibition, the IC50, lay at 8.31 ± 0.78 µM.

Regarding `CC(C)(C)C(=O)/C=C/c1ccc(C#N)cc1` [Compound 9, (E)-4-(4,4-Dimethyl-3-oxopent-1-en-1-yl)benzonitrile], the melting point was 131 to 133 °C. Moreover, the inhibition at 10 µM in data set [1] worked out at 20.9 ± 5.55%. In addition, the inhibition at 10 µM in data set [2] came to 3.76 ± 2.69%.

The molecule `O=C(/C=C/c1ccc([N+](=O)[O-])cc1)c1ccc2c(c1)OCO2` [Compound 9a, (E)-1-(Benzo[d][1,3]dioxol-5-yl)-3-(4-nitrophenyl)prop-2-en-1-one] showed a melting point of 182.4 °C. For the same molecule, in data set [1], the inhibition at 10 µM worked out at 18.1 ± 3.34%. The inhibition at 10 µM in data set [2] was 16.7 ± 6.07%.

Turning to `Cc1ccc(/C=C/C(=O)C(C)(C)C)cc1` [Compound 10, (E)-4,4-Dimethyl-1-(p-tolyl)pent-1-en-3-one], the melting point was 79 to 80 °C. Besides, the inhibition at 10 µM in data set [1] was 8.56 ± 3.04%. In addition, the inhibition at 10 µM in data set [2] came out at 3.91 ± 2.82%.

Molecule `O=C(/C=C/c1ccc(Cl)cc1)c1ccc2ccccc2c1` [Compound 10a, (E)-3-(4-Chlorophenyl)-1-(naphthalen-2-yl)prop-2-en-1-one] showed a melting point of 162 to 164 °C. Moreover, in data set [1], the inhibition at 10 µM is 14.2 ± 6.87%. Moreover, in data set [2], the inhibition at 10 µM came to 33.2 ± 6.47%.

Regarding `CC(C)(C)Oc1ccc(/C=C/C(=O)C(C)(C)C)cc1` [Compound 11, (E)-1-(4-(tert-Butoxy)phenyl)-4,4-dimethylpent-1-en-3-one], the melting point fell in the range of 110 to 111 °C. The inhibition at 10 µM in data set [1] turned out to be 16.8 ± 3.85%. In addition, in data set [2], the inhibition at 10 µM came out at 12.1 ± 3.43%.

With `CC(C)(C)Oc1ccc(/C=C/C(=O)c2ccco2)cc1` [Compound 12, (E)-3-(4-(tert-Butoxy)phenyl)-1-(furan-2-yl)prop-2-en-1-one], the melting point lay within 132.8 to 134.8 °C. Further, in data set [1], the inhibition at 10 µM was 27.3 ± 2.07%. Also, the inhibition at 10 µM in data set [2] came to 19.2 ± 4.05%.

Consider `COc1cccc(C(=O)/C=C/c2ccc(Cl)cc2)c1` [Compound 13a, (E)-3-(4-Chlorophenyl)-1-(3-methoxyphenyl)prop-2-en-1-one], for which, in data set [1], the inhibition at 10 µM worked out at 101.7 ± 0.44% and the IC50 was found to be 1.37 ± 0.73 µM. Also, in data set [2], the inhibition at 10 µM was 91.9 ± 1.63% and half-maximal inhibition (IC50) was put at 3.3 ± 0.68 µM.

On to `COc1ccc(C(=O)/C=C/c2ccc(Cl)cc2)cc1` [Compound 14a, (E)-3-(4-Chlorophenyl)-1-(4-methoxyphenyl)prop-2-en-1-one], for which, in data set [1], the inhibition at 10 µM came to 58.9 ± 3.26% and inhibition was half-maximal at 6.09 ± 7.19 µM (IC50). The inhibition at 10 µM in data set [2] came out at 5.49 ± 4.32%.

Consider `COc1ccc(C(=O)/C=C/c2ccc(Cl)cc2)c(OC)c1` [Compound 15a, (E)-3-(4-Chlorophenyl)-1-(2,4-dimethoxyphenyl)prop-2-en-1-one], for which the inhibition at 10 µM in data set [1] was found to be 13.9 ± 2.43%; in data set [2], 4.42 ± 3.9%.

Consider `COc1ccc(C(=O)/C=C/c2ccc(Cl)cc2)cc1OC` [Compound 16a, (E)-3-(4-Chlorophenyl)-1-(3,4-dimethoxyphenyl)prop-2-en-1-one], for which the inhibition at 10 µM was 68.2 ± 7.74% in data set [1] and 22.9 ± 7.11% in data set [2]. Further, the IC50 in data set [1] was found to be 5.53 ± 1.48 µM.

Turning to `COc1ccc(C(=O)/C=C/c2ccccc2Cl)cc1` [Compound 19a, (E)-3-(2-Chlorophenyl)-1-(4-methoxyphenyl)prop-2-en-1-one], the inhibition at 10 µM in data set [1] worked out at 80.2 ± 1.98%; in data set [2] it was 37.6 ± 3.54%. In data set [1], this molecule had an IC50 of 5.23 ± 0.62 µM.

For the molecule `COc1ccc(C(=O)/C=C/c2ccccc2Cl)cc1OC` [Compound 20a, (E)-3-(2-Chlorophenyl)-1-(3,4-dimethoxyphenyl)prop-2-en-1-one], the inhibition at 10 µM in data set [1] was found to be 95.6 ± 1.14%; in data set [2] it was 67.7 ± 5.37%. Besides, the IC50 was determined as 3.55 ± 0.56 µM in data set [1] and 6.79 ± 0.72 µM in data set [2].

Turning to `CC(C)(C)C(=O)/C=C/c1ccc(Br)s1` [Compound 24, (E)-1-(5-Bromothiophen-2-yl)-4,4-dimethylpent-1-en-3-one], the inhibition at 10 µM in data set [1] was found to be 13 ± 6.88%; in data set [2], 25.7 ± 5.36%.

As to `CCOc1ccccc1C(=O)/C=C/c1ccc(Br)s1` [Compound 25, (E)-3-(5-Bromothiophen-2-yl)-1-(2-ethoxyphenyl)prop-2-en-1-one], in data set [1], the inhibition at 10 µM worked out at 67.8 ± 3.19% and the IC50 was determined as 6.21 ± 0.36 µM. Also, in data set [2], the inhibition at 10 µM is 26.9 ± 5.5%.

`CC(C)(C)C(=O)/C=C/c1ccc2ccccc2n1` [Compound 27, (E)-4,4-Dimethyl-1-(quinolin-2-yl)pent-1-en-3-one]: the inhibition at 10 µM in data set [1] came out at 2.26 ± 0.97%; in data set [2], 5.21 ± 2.72%.

`O=c1cc(N2CCOCC2)oc2c(-c3ccccc3)cccc12` [LY294002, reference compound]: the inhibition at 10 µM was 102 ± 2.64% in data set [1] and 82.5 ± 3.76% in data set [2].
